The target in data set [1] is T1, NACHT, LRR and PYD domains-containing protein 3 (Homo sapiens, UniProt Q96P20). Put plainly: Inhibition of NLRP3 in human THP1 cells assessed as inhibition of IL-1beta production. The format is cell-based, THP-1.
Data set [2] deals with T1, NACHT, LRR and PYD domains-containing protein 3. Put plainly: Inhibition of NLRP3 in human THP1 cells assessed as inhibition of IL-1beta production at 1 uM relative to control. Format: cell-based. Particulars: THP-1.
The nature of data set [3]: Terminal half life in C57BL/6 mouse at 1 mg/kg, iv. Format: ADME, organism-based. Particulars: in vivo, read-out: beta t1/2 (converted).
Data set [4] can be described thus: AUC (0 to t) in C57BL/6 mouse at 3 mg/kg, po. Format: ADME, organism-based. Also on record: dose 3 mg/kg. Particulars: in vivo.
Data set [5] can be described thus: Oral bioavailability in C57BL/6 mouse at 3 mg/kg. Format: ADME, organism-based. Particulars: in vivo.
A short description of data set [6]: MRT in C57BL/6 mouse at 3 mg/kg, po. The format is ADME, organism-based. Particulars: in vivo.
A short description of data set [7]: AUC (0 to t) in C57BL/6 mouse at 1 mg/kg, iv. Format: ADME, organism-based. Also on record: dose 1 mg/kg. Particulars: in vivo.
A short description of data set [8]: Initial plasma concentration in C57BL/6 mouse at 1 mg/kg, iv. Format: ADME, organism-based.
The nature of data set [9]: Cmax in C57BL/6 mouse at 3 mg/kg, po. The format is ADME, organism-based. Also on record: route oral, dose 3 mg/kg. Particulars: in vivo.
Data set [10] is described as follows: MRT in C57BL/6 mouse at 1 mg/kg, iv. The format is ADME, organism-based. Particulars: in vivo.
The nature of data set [11]: Clearance in C57BL/6 mouse at 1 mg/kg, iv. Format: ADME, organism-based. Particulars: in vivo.
Data set [12] in a line: Tmax in C57BL/6 mouse at 3 mg/kg, po. Particulars: in vivo. The format is ADME, organism-based.
The nature of data set [13]: Terminal half life in C57BL/6 mouse at 3 mg/kg, po. Particulars: in vivo, read-out: beta t1/2 (converted). Format: ADME, organism-based.
Data set [14] in a line: Volume of distribution at steady state in C57BL/6 mouse at 1 mg/kg, iv. The format is ADME, organism-based. Particulars: in vivo, read-out: Vdss.
The nature of data set [15]: Metabolic stability in mouse liver microsomes. The format is ADME, Microsome. On the technique in general: Microsomes from liver hold many membrane-bound enzymes, among them those of drug oxidation.
A short description of data set [16]: Permeability in human Caco2 cells. Format: ADME, cell-based. Particulars: caco-2. On the technique in general: Caco-2 monolayers are a common model of the intestinal barrier.
In data set [17] the target is T2, Interferon-inducible protein AIM2 (Homo sapiens) (UniProt O14862).
T2 sequence (whole entry): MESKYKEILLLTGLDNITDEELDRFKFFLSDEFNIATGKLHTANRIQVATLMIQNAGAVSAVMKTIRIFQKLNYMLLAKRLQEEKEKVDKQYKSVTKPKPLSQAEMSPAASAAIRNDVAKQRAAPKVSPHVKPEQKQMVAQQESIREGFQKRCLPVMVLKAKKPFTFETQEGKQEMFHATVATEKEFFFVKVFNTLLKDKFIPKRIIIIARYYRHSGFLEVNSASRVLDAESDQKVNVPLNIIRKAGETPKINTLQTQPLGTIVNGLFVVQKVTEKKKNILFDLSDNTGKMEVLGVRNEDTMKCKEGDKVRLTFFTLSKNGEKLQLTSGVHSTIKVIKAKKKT
Put plainly: Inhibition of AIM2 inflammasome (unknown origin).

Data set [18] in a line: Metabolic stability in rat liver microsomes. The format is ADME, Microsome.
For data set [19], the target named is T3, Cytochrome P450 2C8 (Homo sapiens, UniProt P10632).
T3 sequence (P10632 whole entry): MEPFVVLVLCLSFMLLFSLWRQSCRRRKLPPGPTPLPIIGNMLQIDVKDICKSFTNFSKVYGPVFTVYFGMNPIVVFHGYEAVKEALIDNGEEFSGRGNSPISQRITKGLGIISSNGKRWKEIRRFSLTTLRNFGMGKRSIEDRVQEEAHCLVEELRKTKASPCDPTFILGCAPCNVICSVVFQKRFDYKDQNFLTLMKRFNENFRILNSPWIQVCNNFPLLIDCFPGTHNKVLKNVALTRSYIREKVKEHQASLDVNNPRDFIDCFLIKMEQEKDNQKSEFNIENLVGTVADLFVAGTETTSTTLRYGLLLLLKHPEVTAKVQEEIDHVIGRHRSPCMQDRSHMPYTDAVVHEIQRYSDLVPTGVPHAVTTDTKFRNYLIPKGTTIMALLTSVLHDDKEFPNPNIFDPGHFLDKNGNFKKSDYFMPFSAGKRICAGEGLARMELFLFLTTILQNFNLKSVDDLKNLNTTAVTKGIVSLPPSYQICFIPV
Put plainly: Inhibition of CYP2C8 (unknown origin). The format is ADME.

The nature of data set [20]: Metabolic stability in human liver microsomes. The format is ADME, Microsome.
The nature of data set [21]: Aqueous solubility of the compound. The format is physicochemical. Particulars: buffer.
A short description of data set [22]: Metabolic stability in dog liver microsomes. The format is ADME, Canis lupus familiaris, Microsome.
For data set [23], the target named is Cytochrome P450 2C9 (Homo sapiens, UniProt P11712). Put plainly: Inhibition of CYP2C9 (unknown origin). The format is ADME.
Chain of Cytochrome P450 2C9 (P11712 whole entry): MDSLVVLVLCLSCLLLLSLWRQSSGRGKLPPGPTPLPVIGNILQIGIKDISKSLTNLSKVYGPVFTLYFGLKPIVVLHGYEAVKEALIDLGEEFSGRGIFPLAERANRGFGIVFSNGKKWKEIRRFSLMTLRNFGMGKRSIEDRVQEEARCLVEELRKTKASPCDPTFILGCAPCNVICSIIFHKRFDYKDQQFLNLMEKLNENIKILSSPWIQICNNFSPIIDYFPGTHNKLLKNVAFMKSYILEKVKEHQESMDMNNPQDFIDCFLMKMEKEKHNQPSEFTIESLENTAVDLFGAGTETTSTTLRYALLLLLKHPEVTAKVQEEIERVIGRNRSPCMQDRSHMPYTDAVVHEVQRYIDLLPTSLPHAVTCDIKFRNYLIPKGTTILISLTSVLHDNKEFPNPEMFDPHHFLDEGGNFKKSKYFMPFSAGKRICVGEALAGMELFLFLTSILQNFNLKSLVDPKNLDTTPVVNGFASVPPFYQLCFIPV

pIC50: −log10 of the molar value. Active and inactive are the calls of the source. The calls are words filed in the database; no cut-off is given here.

T1 sequence (Q96P20 whole entry, the tested form may be a part): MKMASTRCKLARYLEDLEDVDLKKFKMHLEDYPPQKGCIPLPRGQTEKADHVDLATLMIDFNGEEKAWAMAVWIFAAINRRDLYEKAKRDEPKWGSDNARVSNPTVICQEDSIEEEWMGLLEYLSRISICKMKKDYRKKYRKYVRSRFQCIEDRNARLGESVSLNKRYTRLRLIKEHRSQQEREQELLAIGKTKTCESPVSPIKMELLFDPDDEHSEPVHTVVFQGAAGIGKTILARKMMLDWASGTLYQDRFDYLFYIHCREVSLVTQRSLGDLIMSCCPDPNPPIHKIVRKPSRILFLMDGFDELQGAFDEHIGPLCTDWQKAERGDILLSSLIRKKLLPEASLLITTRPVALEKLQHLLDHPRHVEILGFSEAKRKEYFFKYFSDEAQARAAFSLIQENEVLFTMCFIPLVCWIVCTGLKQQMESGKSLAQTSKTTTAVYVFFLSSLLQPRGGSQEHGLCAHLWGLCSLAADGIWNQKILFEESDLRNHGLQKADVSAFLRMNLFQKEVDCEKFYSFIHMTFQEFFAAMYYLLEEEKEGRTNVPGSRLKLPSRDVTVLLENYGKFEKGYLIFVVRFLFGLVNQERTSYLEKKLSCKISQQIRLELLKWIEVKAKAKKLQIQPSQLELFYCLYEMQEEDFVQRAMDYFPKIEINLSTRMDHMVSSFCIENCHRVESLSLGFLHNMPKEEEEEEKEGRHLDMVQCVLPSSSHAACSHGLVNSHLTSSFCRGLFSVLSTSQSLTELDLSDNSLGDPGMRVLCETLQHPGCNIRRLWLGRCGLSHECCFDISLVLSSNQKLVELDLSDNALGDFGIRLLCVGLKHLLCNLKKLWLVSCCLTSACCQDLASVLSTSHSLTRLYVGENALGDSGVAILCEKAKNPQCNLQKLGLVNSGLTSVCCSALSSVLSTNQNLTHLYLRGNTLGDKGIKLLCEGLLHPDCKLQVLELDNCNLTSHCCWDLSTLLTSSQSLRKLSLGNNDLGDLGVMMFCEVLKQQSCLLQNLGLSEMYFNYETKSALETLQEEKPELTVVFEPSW

Broadly, the pIC50 is the negative decadic logarithm of the IC50, by convention in mol/L. As a reminder, the inhibition is the change of the read-out against control, counted positive when it falls. `O=C(Nc1ccccc1C(F)(F)F)NS(=O)(=O)/C=C/c1nccs1`: the pIC50 in data set [1] is less than 6.00. Further, the inhibition in data set [2] was less than 50%.

`O=C(Nc1cc(C(F)(F)F)ccc1C(F)(F)F)NS(=O)(=O)/C=C/c1nccs1`: the pIC50 in [1] was less than 6.00. In [2], the inhibition was less than 50%.

Consider `O=C(Nc1c2c(cc3c1OCC3)OCC2)NS(=O)(=O)/C=C/c1nccs1`, for which the inhibition in data set [2] is less than 50%.

On to `O=C(Nc1c(F)cccc1C(F)(F)F)NS(=O)(=O)/C=C/c1nccs1`, for which the pIC50 in data set [1] is less than 6.00. Further, the inhibition in data set [2] is less than 50%.

For the compound `O=C(Nc1c2c(cc3c1CCC3)CCC2)NS(=O)(=O)/C=C/c1ccccn1`, the negative logarithm of the IC50 (pIC50) in [1] was 6.00.

For the compound `Cc1cc(C)c(C)c(NC(=O)NS(=O)(=O)/C=C/c2nccs2)c1C`, the negative-log IC50 (pIC50) in data set [1] is less than 6.00. Also, the inhibition in [2] was less than 50%.

For orientation: AUC(0-t) means the area under the concentration-time curve up to a stated or last time point. In general, MRT refers to a mean duration of stay, worked out from the concentration-time curve. The term Cmax denotes the maximum level reached in the sampled fluid or tissue. The clearance is the rate of elimination divided by the concentration. A high value points to efficient removal. One may read the Tmax as the time at which the peak concentration occurs. For `CC(C)(O)c1coc(S(=O)(=O)NC(=O)Nc2c3c(cc4c2CCC4)CCC3)c1`, the half-life was 238 min in [3] and 79.2 min in [13]. Also, the exposure AUC(0-t) in data set [4] worked out at 46900 ng·h/mL; in data set [7], 20700 ng·h/mL. The same compound had a F in data set [5] of 77%. Further, the mean residence time (MRT) in data set [6] was 3.07 h; in data set [10], 3.22 h. The C0 in data set [8] was 22200 ng/mL. Also, the Cmax in data set [9] amounted to 11700 ng/mL. Also, the clearance in data set [11] stood at 0.8 mL/min/kg. In addition, in [12], the time to peak (Tmax) stood at 15 min. The Vd in data set [14] was determined as 0.15 L/kg.

Consider `O=C(Nc1c2c(cc3c1CCC3)CCC2)NS(=O)(=O)/C=C/c1nccs1`, for which the values for the half-life in data set [3] and in [13] were 141 min and 172 min, respectively. Moreover, the area under the curve AUC(0-t) was found to be 48900 ng·h/mL in data set [4] and 16500 ng·h/mL in data set [7]. In [5], this compound came in with an F of 99%. Moreover, the Stabilty entry in data set [15], in data set [18], in data set [20] and in data set [22] was “Stable” in each case. Also, the figures for the MRT in data set [6] and in [10] were 4.9 h and 3.23 h, respectively. Besides, the permeability entry in data set [16] is recorded as “Permeable”. In addition, in [17], the inhibition result was “inactive”. The compound also showed a C0 in [8] of 6270 ng/mL. Further, the “inhibition (INH)” value in data set [19] and in [23] was “Active” throughout. In [9], this compound returned a Cmax of 8490 ng/mL. Further, the solubility result in data set [21] is given as “Soluble”. For the same compound, the clearance in data set [11] is 1.01 mL/min/kg. Also, in [12], the Tmax stood at 15 min. The Vd in data set [14] was determined as 0.2 L/kg.

As for `Cc1cnc(/C=C/S(=O)(=O)NC(=O)Nc2c3c(cc4c2CCC4)CCC3)s1`, in data set [1], the pIC50 was 5.97.

Take `COc1cccc(OC)c1NC(=O)NS(=O)(=O)/C=C/c1nccs1`: in data set [1], the negative logarithm of the IC50 (pIC50) is less than 6.00. For the same compound, in data set [2], the inhibition is less than 50%.

Consider `O=C(Nc1c2c(cc3c1CCC3)CCC2)NS(=O)(=O)/C=C/c1nc2ccccc2s1`, for which the negative logarithm of the IC50 (pIC50) in [1] is less than 6.00. For the same compound, the inhibition in [2] is less than 50%.

As for `CC(C)c1cccc(C(C)C)c1NC(=O)NS(=O)(=O)/C=C/c1nccs1`, in data set [1], the pIC50 is less than 6.00. In addition, in data set [2], the inhibition was less than 50%.

The values above are taken from ChEMBL document CHEMBL4665838, “Identification of a novel orally bioavailable NLRP3 inflammasome inhibitor” (Bioorg Med Chem Lett, 2020).
